Where two headings read alike, the source gives them in different places.
Assays:
[1] = tested on: K1 antigen of E. coli UTI89; assay: K1 antigen dot blot; type: cell-based, Escherichia coli; settings: 100 µM
Protocol: K1 antigen was detected by dot blot assays of culture extracts probed with anti-K1 H46 serum. The assay was performed as previously described. The experiment was repeated twice with similar results, and a representative dot blot is shown.

[2] = biological target: T1, Adrenergic α1A (Rattus norvegicus, UniProt P43140); assay: Radioligand binding 203100; settings: 10 µM
T1 construct: Wistar Rat submaxillary gland; tissue Eurofins Panlabs (assay Cat #) 203100; host or cells: Wistar rat submaxillary gland
T1 sequence (P43140 whole entry): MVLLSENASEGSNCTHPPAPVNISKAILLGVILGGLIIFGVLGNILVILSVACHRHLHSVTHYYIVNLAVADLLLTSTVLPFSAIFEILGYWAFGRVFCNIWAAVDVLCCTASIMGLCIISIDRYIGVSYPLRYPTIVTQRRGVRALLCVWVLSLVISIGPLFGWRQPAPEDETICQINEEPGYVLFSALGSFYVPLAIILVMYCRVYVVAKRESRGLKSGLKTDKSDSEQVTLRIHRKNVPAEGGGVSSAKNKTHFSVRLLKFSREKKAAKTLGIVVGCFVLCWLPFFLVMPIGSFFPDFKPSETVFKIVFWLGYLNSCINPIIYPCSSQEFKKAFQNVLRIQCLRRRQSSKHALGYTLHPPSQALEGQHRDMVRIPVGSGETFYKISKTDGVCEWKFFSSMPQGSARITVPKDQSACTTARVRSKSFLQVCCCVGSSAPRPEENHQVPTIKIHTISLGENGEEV

[3] = biological target: T2, Adrenergic α2A (Homo sapiens, UniProt P08913); assay: Radioligand binding 203620; settings: 10 µM
T2 construct: host or cells: insect Sf9 cells
T2 sequence (P08913 whole entry): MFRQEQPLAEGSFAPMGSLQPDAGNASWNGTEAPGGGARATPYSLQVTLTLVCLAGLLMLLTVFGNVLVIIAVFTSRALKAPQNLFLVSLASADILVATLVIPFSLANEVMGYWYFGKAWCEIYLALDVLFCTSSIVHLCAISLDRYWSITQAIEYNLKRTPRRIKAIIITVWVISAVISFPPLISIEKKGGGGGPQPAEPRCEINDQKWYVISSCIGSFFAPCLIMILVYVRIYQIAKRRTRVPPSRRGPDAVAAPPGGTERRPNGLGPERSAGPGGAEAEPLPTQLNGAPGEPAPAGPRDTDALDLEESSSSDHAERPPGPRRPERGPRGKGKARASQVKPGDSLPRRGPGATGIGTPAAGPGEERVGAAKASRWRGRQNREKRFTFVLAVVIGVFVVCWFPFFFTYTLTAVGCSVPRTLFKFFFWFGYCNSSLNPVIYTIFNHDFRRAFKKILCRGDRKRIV
Protocol: Vehicle: 1% DMSO Non-Specific Ligand: 10.0 µM Phentolamine
Incubation Buffer: 50 mM Tris-HCl, pH 7.4, 0. 5 mM Quantitation Method: Radioligand Binding
Bmax: 0.18 pmole/mg Protein *
Incubation Time/Temp: 60 minutes @ 25°C Specific Binding: 80% *
Bmax: 0.17 pmole/mg Protein *
Source: Human recombinant insect Sf9 cells Ligand: 1.0 nM [3H]
Vehicle: 1% DMSO Non-Specific Ligand: 10.0 µM WB-4101
Incubation Time/Temp: 60 minutes @ 25°C Specific Binding: 95% *
Incubation Buffer: 50 mM Tris-HCl, pH 7.4, 12.5 mM Quantitation Method: Radioligand Binding
Bmax: 4.60 pmole/mg Protein *
Source: Human recombinant CHO-K1 cells Ligand: 0.030 nM [125I] Cyanopindolol
Incubation Time/Temp: 2 hours @ 25°C Specific Binding: 95% *
Incubation Buffer: 50 mM Tris-HCl, pH 7.4, 1.4 mM Quantitation Method: Radioligand Binding
Ascorbic Acid, 0.001% BSA, 5 mM
EDTA, 1.5 mM CaCl2, 120 mM NaCl
Bmax: 0.072 pmole/mg Protein *

[4] = biological target: Calcium Channel L-Type, Dihydropyridine (Rattus norvegicus, UniProt P22002); type: binding; settings: 10 µM
Sequence of Calcium Channel L-Type, Dihydropyridine (P22002 whole entry): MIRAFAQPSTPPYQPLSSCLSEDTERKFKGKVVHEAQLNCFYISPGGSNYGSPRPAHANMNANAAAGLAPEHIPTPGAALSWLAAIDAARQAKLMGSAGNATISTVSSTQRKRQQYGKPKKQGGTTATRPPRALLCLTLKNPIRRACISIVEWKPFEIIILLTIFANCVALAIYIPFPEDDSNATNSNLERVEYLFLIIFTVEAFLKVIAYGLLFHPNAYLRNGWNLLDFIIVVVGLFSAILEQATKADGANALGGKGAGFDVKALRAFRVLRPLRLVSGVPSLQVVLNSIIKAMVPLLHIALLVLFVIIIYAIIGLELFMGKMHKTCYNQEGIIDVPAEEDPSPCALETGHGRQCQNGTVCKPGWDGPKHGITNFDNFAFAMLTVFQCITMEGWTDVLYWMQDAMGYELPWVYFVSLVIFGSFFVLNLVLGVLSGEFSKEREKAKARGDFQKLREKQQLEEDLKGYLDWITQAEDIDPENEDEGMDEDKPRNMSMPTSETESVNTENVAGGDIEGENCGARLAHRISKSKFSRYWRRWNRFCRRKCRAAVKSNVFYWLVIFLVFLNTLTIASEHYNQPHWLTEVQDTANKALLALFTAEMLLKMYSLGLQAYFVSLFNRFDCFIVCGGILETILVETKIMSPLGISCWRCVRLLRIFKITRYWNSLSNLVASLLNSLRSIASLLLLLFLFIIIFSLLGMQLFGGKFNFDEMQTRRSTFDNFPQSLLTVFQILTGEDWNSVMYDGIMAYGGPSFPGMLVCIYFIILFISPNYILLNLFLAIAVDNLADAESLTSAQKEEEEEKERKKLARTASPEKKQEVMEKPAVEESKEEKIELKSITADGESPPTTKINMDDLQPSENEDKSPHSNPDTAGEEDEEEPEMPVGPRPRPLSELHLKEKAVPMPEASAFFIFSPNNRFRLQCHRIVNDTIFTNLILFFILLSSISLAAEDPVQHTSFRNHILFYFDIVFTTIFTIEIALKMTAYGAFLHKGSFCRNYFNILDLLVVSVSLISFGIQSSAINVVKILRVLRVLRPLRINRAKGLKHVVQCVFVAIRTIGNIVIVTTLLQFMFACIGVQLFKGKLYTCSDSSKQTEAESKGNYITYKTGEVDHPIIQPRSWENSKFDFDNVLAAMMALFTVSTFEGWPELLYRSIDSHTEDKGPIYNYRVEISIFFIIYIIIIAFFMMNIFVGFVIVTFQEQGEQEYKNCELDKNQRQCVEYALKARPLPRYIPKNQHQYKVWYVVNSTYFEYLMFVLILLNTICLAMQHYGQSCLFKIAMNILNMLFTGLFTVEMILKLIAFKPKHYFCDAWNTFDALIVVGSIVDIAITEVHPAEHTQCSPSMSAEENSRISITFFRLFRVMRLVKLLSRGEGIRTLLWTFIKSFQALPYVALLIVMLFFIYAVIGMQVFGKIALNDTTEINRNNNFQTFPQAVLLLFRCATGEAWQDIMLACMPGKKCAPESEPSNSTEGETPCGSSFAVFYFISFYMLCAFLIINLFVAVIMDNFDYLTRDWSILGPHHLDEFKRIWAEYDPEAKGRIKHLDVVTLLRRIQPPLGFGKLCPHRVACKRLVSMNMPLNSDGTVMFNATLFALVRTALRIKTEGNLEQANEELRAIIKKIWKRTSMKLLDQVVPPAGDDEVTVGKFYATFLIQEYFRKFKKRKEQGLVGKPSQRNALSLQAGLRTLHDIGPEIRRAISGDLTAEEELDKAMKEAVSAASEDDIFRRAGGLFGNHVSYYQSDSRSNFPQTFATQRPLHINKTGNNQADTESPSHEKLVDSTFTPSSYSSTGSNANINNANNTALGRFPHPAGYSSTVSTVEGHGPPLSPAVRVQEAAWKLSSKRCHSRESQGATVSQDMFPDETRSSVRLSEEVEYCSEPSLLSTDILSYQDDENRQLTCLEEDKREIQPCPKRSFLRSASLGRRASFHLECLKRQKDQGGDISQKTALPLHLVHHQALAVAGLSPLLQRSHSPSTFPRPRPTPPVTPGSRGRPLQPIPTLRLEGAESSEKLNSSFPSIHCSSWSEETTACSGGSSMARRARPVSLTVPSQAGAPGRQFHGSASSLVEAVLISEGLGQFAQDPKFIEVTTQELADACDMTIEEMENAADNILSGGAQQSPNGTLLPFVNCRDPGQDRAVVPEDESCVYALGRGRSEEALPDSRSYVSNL

[5] = biological target: T3, Estrogen ERα (Homo sapiens, UniProt P03372); type: binding; settings: 10 µM
T3 construct: host or cells: insect Sf9 cells
T3 sequence (P03372 whole entry): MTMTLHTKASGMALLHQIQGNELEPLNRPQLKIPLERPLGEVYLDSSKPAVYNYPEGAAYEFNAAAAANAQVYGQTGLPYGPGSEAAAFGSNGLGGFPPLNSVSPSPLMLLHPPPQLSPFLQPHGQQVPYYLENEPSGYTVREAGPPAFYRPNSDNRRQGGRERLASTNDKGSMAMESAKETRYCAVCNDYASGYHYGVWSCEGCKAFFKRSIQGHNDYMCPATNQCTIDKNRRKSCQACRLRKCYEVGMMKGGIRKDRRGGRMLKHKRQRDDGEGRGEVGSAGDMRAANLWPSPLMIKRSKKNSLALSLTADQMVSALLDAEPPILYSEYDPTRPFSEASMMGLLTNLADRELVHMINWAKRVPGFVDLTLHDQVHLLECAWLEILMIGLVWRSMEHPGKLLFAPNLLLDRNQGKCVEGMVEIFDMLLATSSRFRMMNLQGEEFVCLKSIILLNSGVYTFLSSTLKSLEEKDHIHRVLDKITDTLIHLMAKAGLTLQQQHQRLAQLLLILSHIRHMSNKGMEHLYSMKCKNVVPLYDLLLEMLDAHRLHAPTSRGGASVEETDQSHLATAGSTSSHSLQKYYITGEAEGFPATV

[6] = tested on: Glutamate, Kainate; assay: Radioligand binding 232700; set-up: species or system rat; settings: 10 µM
[7] = biological target: T4, Muscarinic M1 (Homo sapiens, UniProt P11229); assay: Radioligand binding 252610; settings: 10 µM
T4 construct: host or cells: CHO-K1 cells
T4 sequence (P11229 whole entry): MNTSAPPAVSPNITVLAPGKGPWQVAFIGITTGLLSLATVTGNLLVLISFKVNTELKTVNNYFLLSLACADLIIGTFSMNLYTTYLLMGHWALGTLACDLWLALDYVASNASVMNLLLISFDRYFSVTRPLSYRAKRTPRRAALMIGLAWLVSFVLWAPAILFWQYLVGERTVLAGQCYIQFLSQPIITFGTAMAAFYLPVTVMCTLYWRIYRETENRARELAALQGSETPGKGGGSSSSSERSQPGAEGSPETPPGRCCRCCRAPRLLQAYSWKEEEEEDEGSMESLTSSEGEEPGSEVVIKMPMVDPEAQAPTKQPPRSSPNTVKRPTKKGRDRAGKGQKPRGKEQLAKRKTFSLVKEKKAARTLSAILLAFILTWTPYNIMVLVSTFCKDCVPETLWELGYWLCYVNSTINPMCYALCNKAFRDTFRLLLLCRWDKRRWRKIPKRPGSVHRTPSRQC

[8] = Mouse
[9] = Mouse; remark: listed apart in the source
[10] = biological target: Serotonin (5-Hydroxytryptamine) 5-HT2B (Homo sapiens, UniProt P41595); assay: Radioligand binding 271700; set-up: host or cells: CHO-K1; settings: 10 µM
Sequence of Serotonin (5-Hydroxytryptamine) 5-HT2B (P41595 whole entry): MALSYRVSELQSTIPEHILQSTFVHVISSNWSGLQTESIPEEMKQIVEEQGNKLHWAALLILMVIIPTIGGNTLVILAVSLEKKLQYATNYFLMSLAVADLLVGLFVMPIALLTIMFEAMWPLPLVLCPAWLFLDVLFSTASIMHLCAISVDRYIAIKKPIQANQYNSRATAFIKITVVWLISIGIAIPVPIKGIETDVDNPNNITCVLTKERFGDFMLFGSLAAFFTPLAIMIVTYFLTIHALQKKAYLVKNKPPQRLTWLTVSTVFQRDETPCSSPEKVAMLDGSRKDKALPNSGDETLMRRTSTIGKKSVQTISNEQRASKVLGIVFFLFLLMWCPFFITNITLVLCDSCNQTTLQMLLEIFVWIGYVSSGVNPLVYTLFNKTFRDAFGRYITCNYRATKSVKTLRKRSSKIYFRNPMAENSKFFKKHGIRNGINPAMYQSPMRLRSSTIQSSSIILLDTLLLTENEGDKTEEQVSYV

[11] = biological target: Dopamine D2S (Homo sapiens, UniProt P14416); type: binding; set-up: host or cells: CHO cells; settings: 10 µM
Sequence of Dopamine D2S (P14416 other isoform, or with tags, fused parts or gaps): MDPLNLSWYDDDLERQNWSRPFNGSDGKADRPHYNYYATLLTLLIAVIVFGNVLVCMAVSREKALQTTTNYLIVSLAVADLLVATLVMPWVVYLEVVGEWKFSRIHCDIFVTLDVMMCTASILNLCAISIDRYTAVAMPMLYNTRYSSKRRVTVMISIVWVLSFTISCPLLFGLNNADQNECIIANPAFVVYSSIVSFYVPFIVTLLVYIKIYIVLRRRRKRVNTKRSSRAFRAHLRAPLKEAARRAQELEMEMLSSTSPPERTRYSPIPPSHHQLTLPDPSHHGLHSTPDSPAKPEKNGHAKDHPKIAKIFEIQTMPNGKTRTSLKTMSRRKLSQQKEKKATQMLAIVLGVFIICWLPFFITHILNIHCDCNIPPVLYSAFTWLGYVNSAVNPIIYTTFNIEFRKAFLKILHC

In the case of CCOc1ccc(-c2cc(NC(=O)c3c(F)cccc3F)c(C(=O)O)s2)cc1 [DU011], the “K1 reactive material, whole-cell anti-K1 dot blot” value [1] was “reduces K1 reactive material to levels comparable to those of genetic capsule mutants”, the “% Inh.” value [2] was -3% and the “% Inh.” value [3] was -14%. The “% Inh.” value [4] was 18%, the “% Inh.” value [5] was 13% and the “% Inh.” value [6] was 3%. The “% Inh.” value [7] was 10%, the “Hepatic Microsome Stability, percent remaining at 1 hr” value [8] was 74.32% and the “PAMPA Permeability Pe” value (Donor pH 5.0, acceptor pH 7.4) was 14 ×10⁻⁶ cm/s. The “PAMPA Permeability Pe” value (Donor pH 6.2, acceptor pH 7.4) was 209 ×10⁻⁶ cm/s, the “PAMPA Permeability Pe” value (Donor pH 7.4, acceptor pH 7.4) was 52 ×10⁻⁶ cm/s and the “Plasma Stability, percent remaining at 3 hrs” value [9] was 78.39%. The “% Inh.” value [10] was 19% and the “% Inh.” value [11] was -6%.
